In patent publication US20080214394A1, “N-(4-Pyridyl)Methylsulfonamides For Combating Arthropodal Pests” (BASF Aktiengesellschaft, priority 2005, published 2008):

What was measured:
[1] = system: Boll Weevil (Anthonomus grandis); test: whole plant or invertebrate; type: in vivo; details: eggs sprayed with 20 μl, 3 to 5 days
[2] = system: Tobacco Budworm (Heliothis virescens); test: whole plant or invertebrate; type: in vivo; details: 144 h, eggs sprayed with 10 μl, 6 days

SMILES: O=S(=O)(NCc1ccnc2ccccc12)c1ccc(Br)s1 [Compound I-70, 5-bromo-thiophene-2-sulfonic acid (quinoline-4-ylmethyl)-amide]
- mortality at 2500 ppm [1]: > 50%
- mortality at 2500 ppm [2]: > 75%
